Data published in PMC2974656, “Selective killing of human immunodeficiency virus infected cells by non-nucleoside reverse transcriptase inhibitor-induced activation of HIV protease” (Retrovirology, 2010).

Columns and labels:
[1] = design: method as in PMID 12545140; conditions: under therapy; cited from earlier work
in vitro = format: cell-based; conditions: human, 4 days
Experimental: (§1) The cytotoxicity of inhibitors was determined in parallel on MT4-CMV-EGFP control cells and on MT4-LTR-EGFP-IIIB virus producing cells, respectively.

[2] = system: MT4-LTR-EGFP-IIIB HIV-1 producing cells; test: in vitro; format: cell-based; conditions: summary of Table 1
Experimental: as §1

[3] = system: intracellular Gag processing by HIV PR; format: cell-based, HIV-1
Experimental: In previous studies, high concentrations of NNRTI (5 μM) were required to observe NNRTI mediated activation of intracellular HIV PR activity. […]. Towards this end, we developed a biochemical assay for gel independent quantitation of intracellular Gag processing by HIV PR in the context of a virus producing cell. We had previously shown that additional protein domains, consisting of small epitope tags or even the 27 kDa green fluorescent protein (EGFP), can be inserted between the MA and CA domains of the Gag and Gag-Pol polyproteins without affecting polyprotein production or processing by HIV PR [36]. Based on this, we designed a HIV reporter construct which contained a small N-terminal fragment ('alpha peptide') of Escherichia coli beta-galactosidase (β-Gal), flanked by two HIV PR recognition sites, between the MA and CA coding sequences of Gag (Figure 1A). […] This so called alpha complementation principle can be exploited for use in mammalian cells and has been employed for the establishment of various cell based biochemical assay systems. We reasoned that embedding of the small alpha peptide within the multi-domain polyproteins Gag or Gag-Pol, respectively, should impair its productive association with the omega subunit, while proteolytic release of the alpha peptide from the polyprotein by PR would allow the formation of enzymatically active β-Gal. This should allow us to monitor intracellular Gag and Gag-Pol processing through increased β-Gal activity.
Reconstituted β-Gal activity in cell lysates was measured by cleavage of the chromogenic substrate CPRG [42] as described in Methods.
The activity of β-Gal in cell lysates from transfected 293T cells was measured by enzymatic cleavage of the chromogenic β-Gal substrate chlorphenolred-β-D-galactopyranoside (CPRG, Roche; [42]). At 44 h post transfection, cells were briefly rinsed with PBS and suspended in reporter gene assay lysis buffer (Roche, 600 μl per 6-well dish) supplemented with a protease inhibitor mix (Roche). Cell suspensions were incubated for 10 min at room temperature and cell debris was subsequently removed by brief centrifugation. Five μl of supernatant were diluted in 96-well plates with 95 μl CPRG reaction buffer (50 mM potassium phosphate, pH 7.5, 1 mM MgCl2) and pre-warmed for 5 min to 37°C. 100 μl of pre-warmed reaction mix (100 μM CPRG in CPRG reaction buffer supplemented with protease inhibitor cocktail and 40 μM β-mercaptoethanol) were added and β-Gal mediated cleavage of CPRG was monitored by recording absorption at 592 nm every 2 min for 20 min at 37°C using a TECAN Safire multi-well reader. OD592 values were plotted over time and relative reaction rates (OD592/min) were determined from the initial linear velocities.

[4] = Cytotoxicity on uninfected control cells, EGFP fluorescence per well; format: cell-based; conditions: human, MT4-CMV-EGFP control cells (uninfected); 4 days; mean ± SD; tested up to 10 μM; read-out: Cytotoxicity on MT4-CMV-EGFP control cells CC50
Experimental: as §1

HIV-1IIIB = test: Direct antiviral activity: MT4-LTR-EGFP cells infected with HIV-1IIIB, EGFP fluorescence; format: cell-based; conditions: Human immunodeficiency virus 1, 72 h, read-out: Inhibition of HIV replication in vitro EC50
Experimental: After 3 days of incubation, infected cells were quantified by determination of total EGFP fluorescence per well based on microscopy and subsequent image analysis. Threshold values were determined from the average pixel value plus 6 standard deviations from the uninfected control wells, and the median threshold from all control wells on a plate was defined as baseline GFP expression. Intensity values for the sample wells were then determined by subtracting the background threshold from each pixel value obtained from the image of the respective well and calculating the sum of net pixel intensities. Percent inhibition was calculated as 100 * (1 - (Sample - CC)/(VC - CC)).

Gag processing by HIV PR = test: Immunoblot analysis of Gag processing in transfected 293T cells; format: cell-based, HIV-1; conditions: 2 μM LPV
Experimental: 293T cells were seeded in 6-well plates and transfected with the indicated constructs using FuGene6 (Roche) according to the manufacturer's instructions. Cell lysates and tissue culture supernatants were harvested at 44-48 h post transfection. Virus was purified by ultracentrifugation through a 20% (w/w) sucrose cushion. Cell lysates, tissue culture supernatants or pelleted viral particles were separated by SDS-PAGE (17.5% acrylamide; acrylamide:bisacrylamide 200:1). Proteins were transferred to nitrocellulose by semi-dry blotting and detected using polyclonal antisera raised against recombinant HIV-1 CA or MA, or a commercial antiserum against β-Gal (Abcam, ab616), respectively.

[5] = system: intracellular Gag processing by HIV PR; format: cell-based, HIV-1; conditions: 2 μM LPV, 48 h post transfection; DMSO control 0.109 min^-1

| SMILES | Peak serum levels [1] | CC50 at 4 days (in vitro; no DRV, mean ± SD, tested up to 10 μM, read-out: Cytotoxicity on MT4-LTR-EGFP-IIIB HIV-1 producing cells CC50) [µM] | CC50 at 4 days (in vitro; CC50 on virus producing cells in the absence of DRV, one representative experiment (Fig. 3C), 4 parameter fit) [µM] | Cytotoxicity on MT4-LTR-EGFP-IIIB cells, in words [2] | Gag processing or β-Gal activity, pCHIV.MAα variant with D25A mutation (PR-) ([3]; 5 μM EFV) | β-Gal activity, pCHIV.MAα 2PR (linked PR dimer) ([3]; 5 μM EFV) | β-Gal activity, pCHIV.MAα ([3]; 5 μM EFV, equal amounts of pCHIV.MAα and pCMVω) | Concentration required to achieve the maximal effect on β-Gal activity ([3]; 293T cells, 44 h post transfection) | CC50 at 4 days [4] [µM] | EC50 (HIV-1IIIB) [µM] | Gagα processing as determined by immunoblot (Gag processing by HIV PR) | Relative rate of CPRG cleavage [5] [min⁻¹] | β-Gal activity in the cell lysates ([3]; 2 μM LPV, result in words) |
| --- | --- | --- | --- | --- | --- | --- | --- | --- | --- | --- | --- | --- | --- |
| O=C1Nc2ccc(Cl)cc2[C@@](C#CC2CC2)(C(F)(F)F)O1 [EFV, efavirenz] | micromolar range | 1.71 ± 0.43 | 2.44 | less cytotoxic | no increase | No effect | significant increase | ~ 1 μM | > 10 | 0.0019 ± 0.0009 | – | – | – |
| Cc1cccc(C)c1OCC(=O)N[C@@H](Cc1ccccc1)[C@@H](O)C[C@H](Cc1ccccc1)NC(=O)[C@H](C(C)C)N1CCCNC1=O [LPV, lopinavir] | – | – | – | – | – | – | – | – | – | – | nearly completely blocked | 0.054 | reduced, but did not abolish |
